According to patent US20230399312A1, “SUBSTITUTED PYRIMIDINES AND METHODS OF USE” (THERAVANCE BIOPHARMA R&D IP, LLC, priority 2020, published 2023):
pKi: −log10 of the molar value.

Columns and labels:
[1] = target: T1, recombinant human ALK5 (TGF-βR1) protein (Homo sapiens, UniProt P36897); assay: Biochemical ALK5 (TGF-βR1) assay to measure pKi (LANCE Ultra ULight kinase assay); conditions: apparent pKi, converted from pIC50 by Cheng-Prusoff
T1 construct: purchased Life Technologies PR9075A
T1 sequence (P36897 34-503): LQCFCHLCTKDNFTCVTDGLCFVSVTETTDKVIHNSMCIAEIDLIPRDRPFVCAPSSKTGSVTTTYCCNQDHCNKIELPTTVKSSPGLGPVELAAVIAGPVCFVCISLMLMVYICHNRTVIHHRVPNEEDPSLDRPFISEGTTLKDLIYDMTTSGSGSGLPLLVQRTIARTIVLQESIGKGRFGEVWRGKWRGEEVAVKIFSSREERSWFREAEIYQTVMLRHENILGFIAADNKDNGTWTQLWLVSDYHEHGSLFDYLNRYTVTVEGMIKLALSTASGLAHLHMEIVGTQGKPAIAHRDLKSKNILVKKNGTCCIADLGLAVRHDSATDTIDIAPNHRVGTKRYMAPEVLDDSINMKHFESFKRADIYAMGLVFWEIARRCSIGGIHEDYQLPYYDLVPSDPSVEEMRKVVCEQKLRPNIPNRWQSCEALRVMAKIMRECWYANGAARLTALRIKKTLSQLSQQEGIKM
Method in brief: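 Dose-response series of each compound were preincubated with the kinase for 60 minutes at room temperature. Phosphorylation proceeded for 60 minutes at 37 °C after ATP addition, was quenched with EDTA, and was detected with a europium anti-phospho-Thr1342 antibody by TR-FRET; pKi was calculated from pIC50.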

[2] = tested on: TGF-β-stimulated SMAD3 phosphorylation in BEAS-2B cells; assay: Cellular ALK5 potency assay, inhibition of TGF-β stimulated pSMAD3 formation in BEAS-2B cells; format: cell-based; conditions: Homo sapiens, pSMAD3, TGF-β 10 ng/mL, read-out: BEAS2B pIC50 (converted)
Method in brief: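 BEAS-2B cells, HBSS/25 mM HEPES/1% BSA buffer; cpd 1 h, 37 °C; TGF-β 10 ng/mL final, 30 min; lysis, AlphaLISA pSMAD3 read next day. pIC50 vs stimulated no-compound baseline.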

| Compound | pKi [1] | IC50 [2] [nM] |
| --- | --- | --- |
| Cc1cccc(-c2nccc(Nc3ccnc(Nc4ccc(S(=O)(=O)N5CCN(C)CC5)cc4)n3)n2)n1 [Compound 270, N2-[4-(4-methylpiperazin-1-yl)sulfonylphenyl]-N4-[2-(6-methyl-2-pyridyl)pyrimidin-4-yl]pyrimidine-2,4-diamine] | 9.50 to 10.40 | 25.1 to 158 |
| Cc1cccc(-c2nccc(Nc3ccnc(Nc4ccc(CN5CCCC(C(=O)OC6CCNCC6)C5)cc4)n3)n2)n1 (stereo not drawn) [Compound 383, 4-piperidyl 1-[[4-[[4-[[2-(6-methyl-2-pyridyl)pyrimidin-4-yl]amino]pyrimidin-2-yl]amino]phenyl]methyl] piperidine-3-carboxylate] | 9.50 to 10.40 | 25.1 to 158 |
| Cc1cccc(-c2nc(C)cc(Nc3ccnc(Nc4ccc(N5CCN(C)CC5)cc4)n3)n2)n1 [Compound 222, N4-[6-methyl-2-(6-methyl-2-pyridyl)pyrimidin-4-yl]-N2-[4-(4-methylpiperazin-1-yl)phenyl]pyrimidine-2,4-diamine] | 9.50 to 10.40 | 25.1 to 158 |
| Cc1cccc(-c2nccc(Nc3ccnc(Nc4ccc(N5CCC(C(=O)OC6CNC6)CC5)cc4)n3)n2)n1 [Compound 220, azetidin-3-yl 1-[4-[[4-[[2-(6-methyl-2-pyridyl)pyrimidin-4-yl]amino]pyrimidin-2-yl]amino]phenyl]piperidine-4-carboxylate] | 9.50 to 10.40 | 25.1 to 158 |
| Cc1cccc(-c2nccc(Nc3ccnc(Nc4ccc(NCCN)cc4)n3)n2)n1 [Compound 259, N2-[4-(2-aminoethylamino)phenyl]-N4-[2-(6-methyl-2-pyridyl)pyrimidin-4-yl]pyrimidine-2,4-diamine] | 9.50 to 10.40 | 25.1 to 158 |
| Cc1cccc(-c2nccc(Nc3ccnc(Nc4ccc(CN5CC(C(=O)OC6CCNCC6)C5)cc4)n3)n2)n1 [Compound 22, 4-piperidyl 1-[[4-[[4-[[2-(6-methyl-2-pyridyl)pyrimidin-4-yl]amino]pyrimidin-2-yl]amino]phenyl]methyl] azetidine-3-carboxylate] | 9.50 to 10.40 | 25.1 to 158 |
| Cc1cccc(-c2nccc(Nc3ccnc(Nc4ccc(N5CCC(N(C)C)CC5)cc4)n3)n2)n1 [Compound 394, N2-[4-[4-(dimethylamino)-1-piperidyl]phenyl]-N4-[2-(6-methyl-2-pyridyl)pyrimidin-4-yl]pyrimidine-2,4-diamine] | 9.50 to 10.40 | 200 to 1260 |

Continued, in another order:

| pKi [1] | Compound | IC50 [2] [nM] |
| --- | --- | --- |
| 9.50 to 10.40 | Cc1cccc(-c2nccc(Nc3ccnc(Nc4ccc(N5CCNCC5)c(Cl)c4)n3)n2)n1 [Compound 445, N2-(3-chloro-4-piperazin-1-yl-phenyl)-N4-[2-(6-methyl-2-pyridyl)pyrimidin-4-yl]pyrimidine-2,4-diamine] | 25.1 to 158 |
| 9.50 to 10.40 | Cc1cccc(-c2nccc(Nc3ccnc(Nc4ccc(N5CCC(C(=O)OC6CCN(C)C6)CC5)cc4)n3)n2)n1 (stereo not drawn) [Compound 472, (1-methylpyrrolidin-3-yl) 1-[4-[[4-[[2-(6-methyl-2-pyridyl)pyrimidin-4-yl]amino]pyrimidin-2-yl]amino]phenyl]piperidine-4-carboxylate] | 25.1 to 158 |
| 8.50 to 9.40 | Cc1cccc(-c2nccc(Nc3ccnc(Nc4ccc(C(=O)O)s4)n3)n2)n1 [Compound 439, 5-[[4-[[2-(6-methyl-2-pyridyl)pyrimidin-4-yl]amino]pyrimidin-2-yl]amino]thiophene-2-carboxylic acid] | 200 to 1260 |
| 9.50 to 10.40 | COC(=O)c1cc(Nc2ccnc(Nc3ccc(N4CCN(C)CC4)cc3)n2)nc(-c2cccc(C)n2)n1 [Compound 1010, methyl 6-[[2-[4-(4-methylpiperazin-1-yl)anilino]pyrimidin-4-yl]amino]-2-(6-methyl-2-pyridyl)pyrimidine-4-carboxylate] | 200 to 1260 |
| 9.50 to 10.40 | Cc1cccc(-c2nc(Nc3ccnc(Nc4ccc(NC(=O)CC5CNC5)cc4)n3)c3cccn3n2)n1 [Compound 1029, 2-(azetidin-3-yl)-N-[4-[[4-[[2-(6-methyl-2-pyridyl)pyrrolo[2,1-f][1,2,4]triazin-4-yl]amino]pyrimidin-2-yl]amino]phenyl]acetamide] | 25.1 to 158 |
